# From patent publication US20190274334A1 (MARS, INCORPORATED, priority 2016, published 2019)
# Several values for one entry are separate records, joined by “and”; a condition that tells them apart may be missing. Identical values can stand only once. Like-named read-outs stand apart in the source and are kept apart here. *1 amine or outer side, *2 acyl side, *3 side chain or, on linkers, in order; H or OH if unused. Where a SMILES comes first, the peptide text is derived from it. [ ]: non-standard residue; d: D form. γGlu = O=C(O)[C@H](CCC(=O)[*:2])N[*:1]; Abu = CC[C@H](N)C(=O)O
# How the values were obtained:
# feline CaSR (f:CaSR) [1] = target: T1, feline CaSR (f:CaSR) (Felis catus, UniProt A0ABI7YY68); assay: cell-based; type: cell-based
# T1 sequence (A0ABI7YY68 entry or part of it): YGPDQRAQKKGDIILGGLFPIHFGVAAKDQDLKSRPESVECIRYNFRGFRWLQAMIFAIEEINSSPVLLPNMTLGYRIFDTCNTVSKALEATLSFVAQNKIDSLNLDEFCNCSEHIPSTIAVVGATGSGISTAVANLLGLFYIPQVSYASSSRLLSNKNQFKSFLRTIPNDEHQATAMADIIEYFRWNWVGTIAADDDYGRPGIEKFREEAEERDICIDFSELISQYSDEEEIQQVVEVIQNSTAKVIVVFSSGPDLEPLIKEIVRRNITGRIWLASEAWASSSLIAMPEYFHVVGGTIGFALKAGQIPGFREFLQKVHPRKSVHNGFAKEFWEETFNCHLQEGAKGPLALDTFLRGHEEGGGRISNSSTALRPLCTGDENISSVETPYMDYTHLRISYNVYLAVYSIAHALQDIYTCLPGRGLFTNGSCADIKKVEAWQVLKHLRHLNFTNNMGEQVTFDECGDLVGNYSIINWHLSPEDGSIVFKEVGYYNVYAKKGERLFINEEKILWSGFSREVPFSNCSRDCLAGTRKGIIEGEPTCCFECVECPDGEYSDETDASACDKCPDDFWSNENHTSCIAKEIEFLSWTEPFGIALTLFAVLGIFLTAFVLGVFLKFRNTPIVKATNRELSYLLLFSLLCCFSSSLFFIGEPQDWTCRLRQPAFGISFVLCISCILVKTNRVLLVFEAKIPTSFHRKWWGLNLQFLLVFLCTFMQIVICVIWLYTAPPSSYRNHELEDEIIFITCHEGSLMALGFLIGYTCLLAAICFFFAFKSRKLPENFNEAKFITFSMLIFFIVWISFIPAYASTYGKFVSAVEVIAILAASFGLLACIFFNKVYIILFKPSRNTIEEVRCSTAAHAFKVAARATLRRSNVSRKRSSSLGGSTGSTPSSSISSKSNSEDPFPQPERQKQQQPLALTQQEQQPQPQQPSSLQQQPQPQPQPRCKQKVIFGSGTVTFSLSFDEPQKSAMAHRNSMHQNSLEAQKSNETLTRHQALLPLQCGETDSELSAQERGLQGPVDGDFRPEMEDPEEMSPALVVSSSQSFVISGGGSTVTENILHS
# feline CaSR (f:CaSR) [2] = target: T1, feline CaSR (f:CaSR); assay: in vitro PAM testing of amino acids on feline CaSR, single-injection protocol, shift of calcium EC50; type: cell-based; details: for EC50: CaCl2 alone, control of the same experiment, read-out: EC50 of Ca^2+ before the shift (without amino acid)
# Procedure: Methods: HEK293TRex/nat-Clytin cells that inducibly express a feline CaSR (f:CaSR) transgene construct was used to screen 30 amino acids to identify compounds that modulate f:CaSR activity. […] The HEK293 cells were seeded at 10,000 cells/well in 384 MTP. 24 hours after cell seeding, cells were loaded with 10 μm coelenterazine in an assay buffer (20 μL/well) for 4 h at room temperature. […] CaCl2 alone was used as a control.
# PAM mode (single-injection): Test compound (6× concentrated) and CaCl2 (6× concentrated) were directly mixed 1:1 on the compound plate to get a 3× concentrated working solution of each test compound and control. 10 μl/well of the test compound or control working mixture was injected, and luminescence (i.e., PAM activity) was measured.
# [3] = tested on: feline umami (T1R1/T1R3) receptor; details: cited from earlier work
# Human CaSR = target: T2, Human CaSR (Homo sapiens, UniProt P41180); details: Yes/No; cited from earlier work
# T2 sequence (P41180 20-1078): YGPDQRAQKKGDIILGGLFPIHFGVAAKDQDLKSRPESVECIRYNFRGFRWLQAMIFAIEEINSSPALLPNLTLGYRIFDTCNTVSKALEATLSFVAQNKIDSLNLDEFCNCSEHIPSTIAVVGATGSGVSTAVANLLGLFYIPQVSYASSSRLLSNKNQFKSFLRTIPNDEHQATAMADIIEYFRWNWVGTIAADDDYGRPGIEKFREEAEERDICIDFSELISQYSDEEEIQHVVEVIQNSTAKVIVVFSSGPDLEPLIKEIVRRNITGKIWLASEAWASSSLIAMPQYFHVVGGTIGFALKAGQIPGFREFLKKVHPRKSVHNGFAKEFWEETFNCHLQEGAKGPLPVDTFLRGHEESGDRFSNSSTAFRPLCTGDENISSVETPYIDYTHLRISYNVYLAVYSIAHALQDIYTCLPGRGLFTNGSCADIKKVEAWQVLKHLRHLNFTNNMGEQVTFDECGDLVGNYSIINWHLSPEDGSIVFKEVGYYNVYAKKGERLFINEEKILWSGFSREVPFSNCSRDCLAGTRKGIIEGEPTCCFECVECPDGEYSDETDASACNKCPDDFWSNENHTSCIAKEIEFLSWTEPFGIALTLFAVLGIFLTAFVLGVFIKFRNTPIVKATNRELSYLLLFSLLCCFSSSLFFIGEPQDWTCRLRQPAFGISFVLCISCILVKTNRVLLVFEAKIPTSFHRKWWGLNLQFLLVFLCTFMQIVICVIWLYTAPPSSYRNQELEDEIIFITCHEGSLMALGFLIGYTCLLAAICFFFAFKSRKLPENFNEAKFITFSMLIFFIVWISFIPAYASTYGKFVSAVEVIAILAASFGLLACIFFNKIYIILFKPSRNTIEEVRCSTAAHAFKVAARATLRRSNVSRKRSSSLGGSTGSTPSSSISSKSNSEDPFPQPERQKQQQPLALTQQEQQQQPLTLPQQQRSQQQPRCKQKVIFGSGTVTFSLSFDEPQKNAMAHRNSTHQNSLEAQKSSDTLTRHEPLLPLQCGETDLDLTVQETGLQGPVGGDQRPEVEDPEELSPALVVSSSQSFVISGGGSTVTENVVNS
# [4] = agonist mode, read-out: EC50 (Agonist)
# [5] = double-injection protocol, agonist mode and PAM mode
# [6] = PAM mode, CaCl2 injected at EC20, read-out: EC50 (PAM)
compound,measurement,setting,value
N[C@@H](Cc1ccccc1)C(=O)O [L-Phenylalanine],Feline CaSR agonist,feline CaSR (f:CaSR) [1]; Yes/No,do not activate
same,Activity Type,feline CaSR (f:CaSR) [2]; single-injection PAM mode,PAMs and PAM
same,Comments: Umami-active for cats,[3],umami-active
N[C@@H](Cc1c[nH]cn1)C(=O)O [L-histidine],Feline CaSR agonist,feline CaSR (f:CaSR) [1]; Yes/No,do not activate and No
same,Human CaSR agonist,Human CaSR,Yes
same,Comments: Umami-active for cats,[3],Umami-active
N=C(N)NCCC[C@H](N)C(=O)O [L-Arginine],Activity Type,feline CaSR (f:CaSR) [2],PAM EC50 of Ca^2+ moved from 1.5 mM to 0.72 mM in presence of 10 mM L-Arginine
[Ca] [Calcium],EC50,feline CaSR (f:CaSR) [1]; [4],1620 µM
same,Activity Type,feline CaSR (f:CaSR) [1]; [5],Agonist
same,EC50,feline CaSR (f:CaSR) [2]; listed as Ca2^+,1300 µM
same,EC50,feline CaSR (f:CaSR) [2]; listed as Ca^2+,1300 µM and 1500 µM
C[C@H](N)C(=O)O [L-alanine],Feline CaSR agonist,feline CaSR (f:CaSR) [1]; Yes/No,do not activate and No
same,Human CaSR agonist,Human CaSR,Yes
same,Comments: Umami-active for cats,[3],Umami-active
NCCCC[C@H](N)C(=O)O [L-Lysine],Activity Type,feline CaSR (f:CaSR) [2],PAM EC50 of Ca^2+ moved from 1.5 mM to 0.72 mM in presence of 10 mM L-Lysine
N[C@@H](Cc1c[nH]c2ccccc12)C(=O)O [L-Tryptophan],Feline CaSR agonist,feline CaSR (f:CaSR) [1]; Yes/No,do not activate
same,Activity Type,feline CaSR (f:CaSR) [2]; single-injection PAM mode,PAMs and PAM
same,Comments: Umami-active for cats,[3],umami-active
"CN[C@@H]1[C@@H](O)[C@@H](O[C@@H]2[C@@H](O)[C@H](O[C@H]3OC(CN)=CC[C@H]3N)[C@@H](N)C[C@H]2N)OC[C@]1(C)O [Sisomicin, reference compound]",Activity Type,feline CaSR (f:CaSR) [1]; [5],Agonist
"CC(NCC1Cc2ccccc2O1)c1ccc2ccccc2n1 (stereo not drawn) [N-((2,3-dihydrobenzofuran-2-yl)methyl)-1-(quinolin-2-yl)ethanamine]",EC50,feline CaSR (f:CaSR) [1]; [6],9.01 µM
same,Activity Type,feline CaSR (f:CaSR) [1]; [5],PAM
Terbium,EC50,feline CaSR (f:CaSR) [1]; [4],175 µM
same,Activity Type,feline CaSR (f:CaSR) [1]; [5],Agonist
[Mg] [Magnesium],Activity Type,feline CaSR (f:CaSR) [1]; [5],Agonist
"c1ccc(C2CCN(C3CCCc4ccccc43)C2)cc1 (stereo not drawn) [3-phenyl-1-(1,2,3,4-tetrahydronaphthalen-1-yl)pyrrolidine]",Activity Type,feline CaSR (f:CaSR) [1]; [5],PAM
NC(CC(F)C(=O)O)C(=O)O (racemic) [4-Fluoro-DL-glutamic acid],Activity Type,feline CaSR (f:CaSR) [1]; [5],Agonist
N[C@@H](CS(=O)(=O)O)C(=O)O [L-Cysteic acid],Activity Type,feline CaSR (f:CaSR) [1]; [5],Agonist
CC(C)CCC(CCNC(C)c1ccc(Cl)cc1)c1ccc(OC(C)C)cc1 (stereo not drawn) [N-(1-(4-chlorophenyl)ethyl)-3-(4-isopropoxyphenyl)-6-methylheptan-1-amine],EC50,feline CaSR (f:CaSR) [1]; [6],172 µM
same,Activity Type,feline CaSR (f:CaSR) [1]; [5],PAM
NC(CC(C(=O)O)C(=O)O)C(=O)O (racemic) [γ-Carboxy-DL-glutamic acid],Activity Type,feline CaSR (f:CaSR) [1],Agonist
Geneticin [reference compound],Activity Type,feline CaSR (f:CaSR) [1]; [5],Agonist
Cc1ccc(C(CCNC(C)c2ccc(Cl)cc2)c2ccco2)cc1 (stereo not drawn) [N-(1-(4-chlorophenyl)ethyl)-3-(furan-2-yl)-3-(p-tolyl)propan-1-amine],EC50,feline CaSR (f:CaSR) [1]; [6],3.68 µM
same,Activity Type,feline CaSR (f:CaSR) [1]; [5],PAM
"C[C@@H](NCc1cc2ccccc2[nH]1)c1cccc2ccccc12 [Calindol, reference compound]",Activity Type,feline CaSR (f:CaSR) [1]; [5],PAM
"CC(NCCC(c1ccccc1)C1CCOC(C)(C)C1)c1ccccc1 (stereo not drawn) [3-(2,2-dimethyltetrahydro-2H-pyran-4-yl)-3-phenyl-N-(1-phenylethyl)propan-1-amine]",EC50,feline CaSR (f:CaSR) [1]; [6],0.988 µM
same,Activity Type,feline CaSR (f:CaSR) [1]; [5],PAM
Tobramycin [reference compound],Activity Type,feline CaSR (f:CaSR) [1]; [5],PAM
N[C@@H](Cc1ccc(OP(=O)(O)O)cc1)C(=O)O [O-phospho-L-tyrosine],Activity Type,feline CaSR (f:CaSR) [1]; [5],Agonist
CC(C)C[C@H](NC(=O)C[C@H](N)C(=O)O)C(=O)O [H-Asp(Leu-OH)—OH],Activity Type,feline CaSR (f:CaSR) [1]; [5],Agonist
N[C@@H](CCC(=O)N[C@@H](Cc1c[nH]c2ccccc12)C(=O)O)C(=O)O [H-Glu(Trp-OH)—OH],Activity Type,feline CaSR (f:CaSR) [1]; [5],Agonist
Poly-L-arginine,Activity Type,feline CaSR (f:CaSR) [1],Agonist EC50 1.01 uM
same,EC50,feline CaSR (f:CaSR) [1]; read-out: EC50 (Agonist),1.01 µM
COc1ccc(C(CCNC(C)c2ccc(Cl)cc2)CCC(C)C)cc1 (stereo not drawn) [N-(1-(4-chlorophenyl)ethyl)-3-(4-methoxyphenyl)-6-methylheptan-1-amine],EC50,feline CaSR (f:CaSR) [1]; [6],115 µM
same,Activity Type,feline CaSR (f:CaSR) [1]; [5],PAM
N[C@@H](CCC(=O)O)C(=O)O [L-Glutamic acid],Activity Type,feline CaSR (f:CaSR) [1],Agonist
N[C@@H](CC(=O)N[C@@H](Cc1ccccc1)C(=O)O)C(=O)O [H-Asp(Phe-OH)—OH],Activity Type,feline CaSR (f:CaSR) [1]; [5],Agonist
C[Se]C[C@H](N)C(=O)O [Se-(Methyl)selenocysteine],EC50,feline CaSR (f:CaSR) [1]; [4],4470 µM
same,Activity Type,feline CaSR (f:CaSR) [1]; [5],Agonist
"N[C@]1(C(=O)O)C[C@H](C(=O)O)C1 [(1s,3s)-1-aminocyclobutane-1,3-dicarboxylic acid]",Activity Type,feline CaSR (f:CaSR) [1],Agonist
"C[C@H](NC(=O)CC[C@H](N)C(=O)O)C(=O)O [γ-Glu-Ala, L-gamma-Glutamyl-L-alanine]",Activity Type,feline CaSR (f:CaSR) [1]; [5],Agonist
COC(=O)C[C@H](N)C(=O)O [L-Aspartic acid beta-methyl ester],Activity Type,feline CaSR (f:CaSR) [1]; [5],Agonist
N[C@@H](CCCC(=O)O)C(=O)O [L-2-Aminoadipic acid],Activity Type,feline CaSR (f:CaSR) [1]; [5],Agonist
"Cc1ccc(C2(CCNC(C)c3ccc(Cl)cc3)CCOC(C)(C)C2)cc1 (stereo not drawn) [1-(4-chlorophenyl)-N-(2-(2,2-dimethyl-4-(p-tolyl)tetrahydro-2H-pyran-4-yl)ethyl)ethanamine]",Activity Type,feline CaSR (f:CaSR) [1]; [5],PAM
"NC[C@@H]1O[C@H](O[C@H]2[C@@H](O)[C@H](O[C@@H]3[C@@H](O)[C@H](N)C[C@H](N)[C@H]3O[C@H]3O[C@H](CO)[C@@H](O)[C@H](O)[C@H]3N)O[C@@H]2CO)[C@H](N)[C@@H](O)[C@@H]1O [Paromomycin, reference compound]",Activity Type,feline CaSR (f:CaSR) [1]; [5],Agonist
CC[C@H](NC(=O)CC[C@H](N)C(=O)O)C(=O)NCC(=O)O [Ophthalmic Acid] (γGlu-[Abu]-Gly-OH),EC50,feline CaSR (f:CaSR) [1]; [4],2660 µM
same,Activity Type,feline CaSR (f:CaSR) [1]; [5],Agonist
CC(C)C[C@H](NC(=O)CC[C@H](N)C(=O)O)C(=O)O [H-Glu(Leu-OH)—OH],Activity Type,feline CaSR (f:CaSR) [1]; [5],Agonist
NC(=O)[C@@H](N)CCC(=O)O [L-Isoglutamine],Activity Type,feline CaSR (f:CaSR) [1]; [5],Agonist
"CC(NCC1CCCN(C)C1c1cccs1)c1cc(Cl)c(N)c(Cl)c1 (stereo not drawn) [2,6-dichloro-4-(1-(((1-methyl-2-(thiophen-2-yl)piperidin-3-yl)methyl)amino)ethyl)aniline]",EC50,feline CaSR (f:CaSR) [1]; [6],8.68 µM
same,Activity Type,feline CaSR (f:CaSR) [1]; [5],PAM
NCCCCN [Putrescine],Feline CaSR agonist,feline CaSR (f:CaSR) [1],No
same,Human CaSR agonist,Human CaSR,Yes
N[C@@H](CCC(=O)NCC(=O)O)C(=O)O [H-Glu(Gly-OH)—OH],Activity Type,feline CaSR (f:CaSR) [1]; [5],Agonist
